Measurements as given in patent publication US9695155B2, “Herbicidal substituted pyrimidinyloxy benzene compounds” (E. I. DU PONT DE NEMOURS AND COMPANY, priority 2013, dated 2017).

How the values were obtained:
[1] = tested on: barnyardgrass; assay: Test A preemergence; assay type: in vivo, Echinochloa crus-galli; conditions: for Plant response rating, Barnyardgrass: 0 to 100 scale where 0 is no effect and 100 is complete control
How it was run: (§1)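 Visual 0–100 rating (100 = complete control) taken about 10 d post-treatment relative to untreated checks. Preemergence: directed soil spray on sown loam/sand pots. Postemergence: seedlings 2–10 cm, 1–2 leaf. Non-phytotoxic solvent formulation with surfactant.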

[2] = tested on: kochia; assay: Test A preemergence; assay type: in vivo, Kochia scoparia; conditions: for Plant response rating, Kochia: 0 to 100 scale where 0 is no effect and 100 is complete control
How it was run: as §1

[3] = tested on: ragweed; assay: Test A preemergence; assay type: in vivo, Ambrosia elatior; conditions: for Plant response rating, Ragweed: 0 to 100 scale where 0 is no effect and 100 is complete control
How it was run: as §1

[4] = tested on: Italian ryegrass; assay: Test A preemergence; assay type: in vivo, Lolium multiflorum; conditions: for Plant response rating, Ryegrass, Italian: 0 to 100 scale where 0 is no effect and 100 is complete control
How it was run: as §1

[5] = tested on: giant foxtail; assay: Test A preemergence; assay type: in vivo, Setaria faberii; conditions: for Plant response rating, Foxtail, Giant: 0 to 100 scale where 0 is no effect and 100 is complete control
How it was run: as §1

[6] = tested on: pigweed; assay: Test A preemergence; assay type: in vivo, Amaranthus retroflexus; conditions: for Plant response rating, Pigweed: 0 to 100 scale where 0 is no effect and 100 is complete control
How it was run: as §1

[7] = tested on: barnyardgrass; assay: Test A postemergence; assay type: in vivo, Echinochloa crus-galli
How it was run: as §1

[8] = tested on: kochia; assay: Test A postemergence; assay type: in vivo, Kochia scoparia
How it was run: as §1

[9] = tested on: ragweed; assay: Test A postemergence; assay type: in vivo, Ambrosia elatior; conditions: for Plant response rating, Ragweed: 0 to 100 scale, 0 no effect, 100 complete control
How it was run: as §1

[10] = tested on: Italian ryegrass; assay: Test A postemergence; assay type: in vivo, Lolium multiflorum; conditions: for Plant response rating, Ryegrass, Italian: 0 to 100 scale, 0 no effect, 100 complete control
How it was run: as §1

[11] = tested on: giant foxtail; assay: Test A postemergence; assay type: in vivo, Setaria faberii
How it was run: as §1

[12] = tested on: pigweed; assay: Test A postemergence; assay type: in vivo, Amaranthus retroflexus; conditions: for Plant response rating, Pigweed: 0 to 100 scale, 0 no effect, 100 complete control
How it was run: as §1

[13] = tested on: wheat; assay: Test A postemergence; assay type: in vivo, Triticum aestivum; conditions: for Plant response rating, Wheat: 0 to 100 scale, 0 no effect, 100 complete control
How it was run: as §1

[14] = tested on: corn; assay: Test A postemergence; assay type: in vivo, Zea mays
How it was run: as §1

[15] = tested on: blackgrass; assay: Test A postemergence; assay type: in vivo, Alopecurus myosuroides
How it was run: as §1

[16] = tested on: galium; assay: Test A postemergence; assay type: in vivo, Galium aparine
How it was run: as §1

[17] = tested on: rice; assay: Test B flooded paddy test; assay type: in vivo, Oryza sativa; conditions: Flood, 250 g ai/ha; 0 to 100 scale where 0 is no effect and 100 is complete control
How it was run: (§2)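 Post-emergence paddy-water application at the 2-leaf stage, with 3 cm flood kept for the whole test. Response was judged visually relative to controls after 13 to 15 greenhouse days, 0 indicating no effect and 100 complete control.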

[18] = tested on: sedge, umbrella; assay: Test B flooded paddy test; assay type: in vivo, Cyperus difformis; conditions: Flood, 250 g ai/ha; 0 to 100 scale where 0 is no effect and 100 is complete control
How it was run: as §2

[19] = tested on: Heteranthera limosa; assay: Test B flooded paddy test; assay type: in vivo; conditions: Flood, 250 g ai/ha; 0 to 100 scale where 0 is no effect and 100 is complete control
How it was run: as §2

[20] = tested on: barnyardgrass; assay: Test B flooded paddy test; assay type: in vivo, Echinochloa crus-galli; conditions: Flood, 250 g ai/ha; 0 to 100 scale where 0 is no effect and 100 is complete control
How it was run: as §2

[21] = 31 g ai/ha, 0 to 100 scale, 0 no effect, 100 complete control
[22] = 125 g ai/ha, 0 to 100 scale where 0 is no effect and 100 is complete control
[23] = 31 g ai/ha, visual, approximately 10 days
[24] = 1000 g ai/ha, 0 to 100 scale, 0 no effect, 100 complete control, approx. 10 days
[25] = 1000 g ai/ha, 0 to 100 scale, 0 no effect, 100 complete control

FCCc1cn(-c2c(F)cccc2Oc2ncc(Cl)cn2)nn1 [Compound 108]
Barnyardgrass plant response rating (0 to 100 scale) ([1]; 31 g ai/ha): 10 | Plant response rating, Barnyardgrass ([1]; 125 g ai/ha): 70 | Kochia plant response rating (0 to 100 scale) ([2]; 31 g ai/ha): 40 | Plant response rating, Kochia ([2]; 125 g ai/ha): 70 | Ragweed plant response rating (0 to 100 scale) ([3]; 31 g ai/ha): 70 | Plant response rating, Ragweed ([3]; 125 g ai/ha): 80 | Ryegrass, Italian plant response rating (0 to 100 scale) ([4]; 31 g ai/ha): 0 | Plant response rating, Ryegrass, Italian ([4]; 125 g ai/ha): 30 | Foxtail, Giant plant response rating (0 to 100 scale) ([5]; 31 g ai/ha): 20 | Plant response rating, Foxtail, Giant ([5]; 125 g ai/ha): 90 | Pigweed plant response rating (0 to 100 scale) ([6]; 31 g ai/ha): 90 | Plant response rating, Pigweed ([6]; 125 g ai/ha): 100 | Plant response rating, Barnyardgrass [7, 21]: 20 | Plant response rating, Barnyardgrass [7, 22]: 60 | Plant response rating, Kochia [8, 21]: 70 | Plant response rating, Kochia [8, 22]: 90 | Plant response rating, Ragweed ([9]; 31 g ai/ha): 20 | Plant response rating, Ryegrass, Italian ([10]; 31 g ai/ha): 0 | Plant response rating, Foxtail, Giant [11, 21]: 20 | Plant response rating, Foxtail, Giant [11, 22]: 70 | Plant response rating, Pigweed ([12]; 31 g ai/ha): 50 | Plant response rating, Wheat ([13]; 31 g ai/ha): 10 | Plant response rating, Corn [14, 21]: 20 | Plant response rating, Corn [14, 22]: 30 | Plant response rating, Blackgrass [15, 21]: 30 | Plant response rating, Blackgrass [15, 22]: 80 | Plant response rating, Galium [16, 21]: 70 | Plant response rating, Galium [16, 22]: 90 | Plant response rating, Rice [17]: 35 | Plant response rating, Sedge, Umbrella [18]: 80 | Plant response rating, Ducksalad [19]: 85 | Plant response rating, Barnyardgrass [20]: 0

N#Cc1cnn(-c2c(Cl)cccc2Oc2ncc(Cl)cn2)c1 [Compound 144]
Plant response rating, Barnyardgrass [1, 23]: 20 | Plant response rating, Barnyardgrass ([1]; 125 g ai/ha): 90 | Plant response rating, Kochia [2, 23]: 70 | Plant response rating, Kochia ([2]; 125 g ai/ha): 100 | Plant response rating, Ragweed [3, 23]: 0 | Plant response rating, Ragweed ([3]; 125 g ai/ha): 100 | Plant response rating, Ryegrass, Italian [4, 23]: 20 | Plant response rating, Ryegrass, Italian ([4]; 125 g ai/ha): 20 | Plant response rating, Foxtail, Giant [5, 23]: 70 | Plant response rating, Foxtail, Giant ([5]; 125 g ai/ha): 100 | Plant response rating, Pigweed [6, 23]: 90 | Plant response rating, Pigweed ([6]; 125 g ai/ha): 100 | Plant response rating, Barnyardgrass [7, 21]: 20 | Barnyardgrass plant response rating [7, 22]: 90 | Plant response rating, Kochia [8, 21]: 50 | Kochia plant response rating [8, 22]: 100 | Plant response rating, Ragweed ([9]; 31 g ai/ha): 20 | Ragweed plant response rating [9, 22]: 80 | Plant response rating, Ryegrass, Italian ([10]; 31 g ai/ha): 0 | Ryegrass, Italian plant response rating [10, 22]: 50 | Plant response rating, Foxtail, Giant [11, 21]: 20 | Foxtail, Giant plant response rating [11, 22]: 100 | Plant response rating, Pigweed ([12]; 31 g ai/ha): 80 | Pigweed plant response rating [12, 22]: 100 | Plant response rating, Wheat ([13]; 31 g ai/ha): 20 | Wheat plant response rating [13, 22]: 20 | Plant response rating, Corn [14, 21]: 20 | Corn plant response rating [14, 22]: 40 | Plant response rating, Blackgrass [15, 21]: 20 | Blackgrass plant response rating [15, 22]: 90 | Plant response rating, Galium [16, 21]: 80 | Galium plant response rating [16, 22]: 90 | Plant response rating, Rice [17]: 0 | Plant response rating, Sedge, Umbrella [18]: 80 | Plant response rating, Ducksalad [19]: 95 | Plant response rating, Barnyardgrass [20]: 0

Cc1noc(-c2cccc(Oc3ncc(Cl)cn3)c2-n2cc(C(F)(F)F)cn2)n1 [Compound 299]
Barnyardgrass plant response rating [1, 24]: 90 | Kochia plant response rating [2, 24]: 100 | Ragweed plant response rating [3, 24]: 70 | Ryegrass, Italian plant response rating [4, 24]: 60 | Foxtail, Giant plant response rating [5, 24]: 100 | Pigweed plant response rating [6, 24]: 100 | Plant response rating, Barnyardgrass [7, 25]: 80 | Plant response rating, Kochia [8, 25]: 70 | Plant response rating, Ragweed ([9]; 1000 g ai/ha): 30 | Plant response rating, Ryegrass, Italian ([10]; 1000 g ai/ha): 70 | Plant response rating, Foxtail, Giant [11, 25]: 90 | Plant response rating, Pigweed ([12]; 1000 g ai/ha): 100 | Plant response rating, Wheat ([13]; 1000 g ai/ha): 20 | Plant response rating, Corn [14, 25]: 70 | Plant response rating, Blackgrass [15, 25]: 80 | Plant response rating, Galium [16, 25]: 80 | Plant response rating, Rice [17]: 15 | Plant response rating, Sedge, Umbrella [18]: 70 | Plant response rating, Ducksalad [19]: 20 | Plant response rating, Barnyardgrass [20]: 20
